Data reported in US20080292736A1, “Bioavailability enhancing activity of carum carvi extracts and fractions thereof” (COUNCIL OF SCIENTIFIC AND INDUSTRIAL RESEARCH, priority 2001, published 2008).
Read-outs that look alike come from different tables or passages of the source. Each block holds one molecule with its values, some of them ahead of it.

Legend:
[1] = Enhancement of bioavailability of drugs given to rats with bioenhancers (plasma drug level by HPLC); details: for % Enhancement in bioavailability, BE from Carum carvi: drug with Carum carvi bioenhancer (aqueous or 50% alcoholic extract 30 mg/kg or Fraction No. 1 15 mg/kg), drug dose mg/kg
[2] = rat, in vivo; for % Enhancement in bioavailability, BE from Zingiber officinale: 35 mg/kg; for % Enhancement in bioavailability, Carum carvi (Cc) Extr.: 30 mg/kg
[3] = drug with piperine; background statement; cited from earlier work

% Enhancement in bioavailability, Carum carvi + Zingiber officinale, Extr. (Cc) [2]: 32% | % Enhancement in bioavailability, Carum carvi + Zingiber officinale, Frac 1. (Cc) [2]: 38% | % Enhancement in bioavailability, Carum carvi + piperine, Extr. (Cc) [2]: 22% | % Enhancement in bioavailability, Carum carvi + piperine, Frac 1. (Cc) [2]: 29% | % Enhancement in bioavailability, Carum carvi (Cc) Extr. [2]: 16% | % Enhancement in bioavailability, BE from Zingiber officinale [2]: 21%
Molecule: CC(C)[C@H](N)C(=O)O [Valine]

% Enhancement in bioavailability, Carum carvi + Zingiber officinale, Extr. (Cc) [2]: 20% | % Enhancement in bioavailability, Carum carvi + Zingiber officinale, Frac 1. (Cc) [2]: 27% | % Enhancement in bioavailability, Carum carvi + piperine, Extr. (Cc) [2]: 13% | % Enhancement in bioavailability, Carum carvi + piperine, Frac 1. (Cc) [2]: 16% | % Enhancement in bioavailability, Carum carvi (Cc) Extr. [2]: 17% | % Enhancement in bioavailability, BE from Zingiber officinale [2]: Nil
Molecule: Vitamin A

% Enhancement in bioavailability, Carum carvi + Zingiber officinale, Extr. (Cc) [2]: nil | % Enhancement in bioavailability, Carum carvi + Zingiber officinale, Frac 1. (Cc) [2]: nil | % Enhancement in bioavailability, Carum carvi + piperine, Extr. (Cc) [2]: nil | % Enhancement in bioavailability, Carum carvi + piperine, Frac 1. (Cc) [2]: nil | % Enhancement in bioavailability, Carum carvi (Cc) Extr. [2]: Nil | % Enhancement in bioavailability, BE from Zingiber officinale [2]: nil
Molecule: Nc1nc2ncc(CNc3ccc(C(=O)N[C@@H](CCC(=O)O)C(=O)O)cc3)nc2c(=O)[nH]1 [Folio Acid]

% Enhancement in bioavailability, BE from Carum carvi [1]: 110% | % Enhancement in bioavailability, Carum carvi + Zingiber officinale ([1]; drug with Carum carvi bioenhancer and Zingiber officinale 35 mg/kg, drug dose as in row): 140% | % Enhancement in bioavailability, Carum carvi + Piperine ([1]; drug with Carum carvi bioenhancer and piperine 8 mg/kg, drug dose as in row): 170% | % Enhancement in bioavailability, BE from Zingiber officinale ([1]; drug with Zingiber officinale 50% alcoholic extract of fresh ginger 35 mg/kg, drug dose as in row): 65% | % Enhancement in bioavailability, Piperine as BE ([1]; drug with piperine 8 mg/kg, drug dose as in row): 45%
Molecule: CO[C@H]1/C=C/O[C@@]2(C)Oc3c(C)c(O)c4c(O)c(c(/C=N/N5CCN(C)CC5)c(O)c4c3C2=O)NC(=O)/C(C)=C\C=C\[C@H](C)[C@H](O)[C@@H](C)[C@@H](O)[C@@H](C)[C@H](OC(C)=O)[C@@H]1C [Rifampicin]
bioenhancing effect of piperine on the drug [3]: highly significant

% Enhancement in bioavailability, Carum carvi + Zingiber officinale, Extr. (Cc) [2]: 42% | % Enhancement in bioavailability, Carum carvi + Zingiber officinale, Frac 1. (Cc) [2]: 50% | % Enhancement in bioavailability, Carum carvi + piperine, Extr. (Cc) [2]: 37% | % Enhancement in bioavailability, Carum carvi + piperine, Frac 1. (Cc) [2]: 44% | % Enhancement in bioavailability, Carum carvi (Cc) Extr. [2]: 28% | % Enhancement in bioavailability, BE from Zingiber officinale [2]: 15%
Molecule: CC[C@H](C)[C@H](N)C(=O)O [Isoleucine]

% Enhancement in bioavailability, BE from Carum carvi [2]: 76% | % Enhancement in bioavailability, Carum carvi + Piperine [2]: 70% | % Enhancement in bioavailability, Carum carvi + Zingiber officinale [2]: 75% | % Enhancement in bioavailability, BE from Zingiber officinale [2]: nil
Molecule: COc1ccc2[nH]c([S+]([O-])Cc3ncc(C)c(OC)c3C)nc2c1 (centres unmarked) [Omeprazole]

% Enhancement in bioavailability, BE from Carum carvi [2]: 70% | % Enhancement in bioavailability, Carum carvi + Piperine [2]: 80% | % Enhancement in bioavailability, Carum carvi + Zingiber officinale [2]: 75% | % Enhancement in bioavailability, BE from Zingiber officinale [2]: 71%
Molecule: N[C@@H]1CON=C1O [Cycloserine]

% Enhancement in bioavailability, BE from Carum carvi [2]: 45% | % Enhancement in bioavailability, Carum carvi + Piperine [2]: 50% | % Enhancement in bioavailability, Carum carvi + Zingiber officinale [2]: 55% | % Enhancement in bioavailability, BE from Zingiber officinale [2]: Nil
Molecule: NC(=O)c1cnccn1 [Pyrazinamide]
bioenhancing effect of piperine on the drug [3]: nil or marginal

% Enhancement in bioavailability, BE from Carum carvi [2]: Nil | % Enhancement in bioavailability, Carum carvi + Piperine [2]: 98% | % Enhancement in bioavailability, Carum carvi + Zingiber officinale [2]: 76% | % Enhancement in bioavailability, BE from Zingiber officinale [2]: 86%
Molecule: CN1C(C(=O)Nc2ccccn2)=C(O)c2ccccc2S1(=O)=O [Piroxicam]

% Enhancement in bioavailability, BE from Carum carvi [2]: Nil | % Enhancement in bioavailability, Carum carvi + Piperine [2]: nil | % Enhancement in bioavailability, Carum carvi + Zingiber officinale [2]: nil | % Enhancement in bioavailability, BE from Zingiber officinale [2]: Nil
Molecule: NNC(=O)c1ccncc1 [Isoniazid]
bioenhancing effect of piperine on the drug [3]: nil or marginal

Second part, the molecule before the results:

Molecule: CCOC(=O)C1=C(COCCN)NC(C)=C(C(=O)OC)C1c1ccccc1Cl (centres unmarked) [Amlodipine]
% Enhancement in bioavailability, BE from Carum carvi [1]: Nil | % Enhancement in bioavailability, Carum carvi + Piperine [2]: 50% | % Enhancement in bioavailability, Carum carvi + Zingiber officinale [2]: 65% | % Enhancement in bioavailability, BE from Zingiber officinale [2]: 68%

Molecule: Nc1nc2c(ncn2COCCO)c(=O)[nH]1 [Acyclovir]
% Enhancement in bioavailability, BE from Carum carvi [2]: 78% | % Enhancement in bioavailability, Carum carvi + Piperine [2]: 100% | % Enhancement in bioavailability, Carum carvi + Zingiber officinale [2]: 90% | % Enhancement in bioavailability, BE from Zingiber officinale [2]: 82%

Molecule: COc1cc(/C=C/C(=O)CC(=O)/C=C/c2ccc(O)c(OC)c2)ccc1O [Curcumin]
% Enhancement in bioavailability, Carum carvi + Zingiber officinale, Extr. (Cc) [2]: 43% | % Enhancement in bioavailability, Carum carvi + Zingiber officinale, Frac 1. (Cc) [2]: 52% | % Enhancement in bioavailability, Carum carvi + piperine, Extr. (Cc) [2]: 42% | % Enhancement in bioavailability, Carum carvi + piperine, Frac 1. (Cc) [2]: 51% | % Enhancement in bioavailability, Carum carvi (Cc) Extr. [2]: 40% | % Enhancement in bioavailability, BE from Zingiber officinale [2]: 49%

Molecule: C=CC1=C(C(=O)O)N2C(=O)[C@@H](NC(=O)/C(=N\OCC(=O)O)c3csc(N)n3)[C@H]2SC1 [Cefixime]
% Enhancement in bioavailability, BE from Carum carvi [2]: 80% | % Enhancement in bioavailability, Carum carvi + Piperine [2]: 79% | % Enhancement in bioavailability, Carum carvi + Zingiber officinale [2]: 82% | % Enhancement in bioavailability, BE from Zingiber officinale [2]: Nil

Molecule: CC1=C(C(=O)O)N2C(=O)[C@@H](NC(=O)[C@H](N)c3ccc(O)cc3)[C@H]2SC1 [Cefadroxil]
% Enhancement in bioavailability, BE from Carum carvi [2]: 67% | % Enhancement in bioavailability, Carum carvi + Piperine [2]: 95% | % Enhancement in bioavailability, Carum carvi + Zingiber officinale [2]: 85% | % Enhancement in bioavailability, BE from Zingiber officinale [2]: 68%

Molecule: CC[C@H]1OC(=O)[C@H](C)[C@@H](O[C@H]2C[C@@](C)(OC)[C@@H](O)[C@H](C)O2)[C@H](C)[C@@H](O[C@@H]2O[C@H](C)C[C@H](N(C)C)[C@H]2O)[C@](C)(O)C[C@@H](C)CN(C)[C@H](C)[C@@H](O)[C@]1(C)O [Azithromycin]
% Enhancement in bioavailability, BE from Carum carvi [2]: 55% | % Enhancement in bioavailability, Carum carvi + Piperine [2]: 90% | % Enhancement in bioavailability, Carum carvi + Zingiber officinale [2]: 86% | % Enhancement in bioavailability, BE from Zingiber officinale [2]: 78%

Molecule: [Se] [Selenium]
% Enhancement in bioavailability, Carum carvi + Zingiber officinale, Extr. (Cc) [2]: nil | % Enhancement in bioavailability, Carum carvi + Zingiber officinale, Frac 1. (Cc) [2]: nil | % Enhancement in bioavailability, Carum carvi + piperine, Extr. (Cc) [2]: Nil | % Enhancement in bioavailability, Carum carvi + piperine, Frac 1. (Cc) [2]: nil | % Enhancement in bioavailability, Carum carvi (Cc) Extr. [2]: Nil | % Enhancement in bioavailability, BE from Zingiber officinale [2]: Nil

Molecule: CCCNC(=O)NS(=O)(=O)c1ccc(Cl)cc1 [chlorpropamide]
bioenhancing effect of piperine on the drug [3]: does not enhance

Molecule: NCC[C@H](O)C(=O)N[C@@H]1C[C@H](N)[C@@H](O[C@H]2O[C@H](CN)[C@@H](O)[C@H](O)[C@H]2O)[C@H](O)[C@H]1O[C@H]1O[C@H](CO)[C@@H](O)[C@H](N)[C@H]1O [Amikacin]
% Enhancement in bioavailability, BE from Carum carvi [2]: 85% | % Enhancement in bioavailability, Carum carvi + Piperine [2]: 100% | % Enhancement in bioavailability, Carum carvi + Zingiber officinale [2]: 92% | % Enhancement in bioavailability, BE from Zingiber officinale [2]: Nil
